Measured values: patent US10278873B2, “Absorbent article having a domed section and method of manufacturing same” (UNICHARM CORPORATION, priority 2011, dated 2019)

Assay: Surface tension of blood containing blood modifying agent, pendant drop method (Example 7)
Settings: 0.10 mass % in sheep defibrinated blood; 35° C.
Description: The surface tension of blood containing a blood modifying agent was measured by the pendant drop method, using a Drop Master500 contact angle meter by Kyowa Interface Science Co., Ltd. The surface tension was measured after adding a prescribed amount of blood modifying agent to sheep defibrinated blood, and thoroughly shaking.
The measurement was accomplished automatically with a device, and the […] γ was determined by the following formula (see FIG. 98). γ=g×ρ×(de)^2×1/H
The density ρ was measured at the temperatures listed in Table 5, according to JIS K 2249-1995, “Density test methods and density/mass/volume conversion tables”, “5. Vibrating density test method”.
The measurement was accomplished using a DA-505 by Kyoto Electronics Co., Ltd.

CCCCCCCCCCCCOC(=O)CCCCCCCCCCC [No. 2-18, Ester of dodecanoic acid (C12) and dodecyl alcohol (C12)]
Surface tension (mN/m): 58.8 mN/m
